Measured values from US20240217978A1 (CHONG KUN DANG PHARMACEUTICAL CORP., priority 2021, published 2024).

molecular target: human adenosine A2a receptor (Homo sapiens (Human), UniProt P29274); assay: A2a receptor binding affinity, [3H]-NECA radioligand binding test; details: [3H]-NECA 37 nM; membrane from HEK-293 cells transfected with human adenosine A2a receptor
In short: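 Membranes from HEK-293 cells expressing human A2a receptor were incubated with [3H]-NECA (final 37 nM) and compound for 1 h at room temperature in 50 mM Tris, 10 mM MgCl2, 1 mM EDTA, pH 7.4. Bound ligand was filtered on PEI-coated plates and counted by scintillation to derive IC50 (μM).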

human adenosine A2a receptor, sequence (P29274 whole entry): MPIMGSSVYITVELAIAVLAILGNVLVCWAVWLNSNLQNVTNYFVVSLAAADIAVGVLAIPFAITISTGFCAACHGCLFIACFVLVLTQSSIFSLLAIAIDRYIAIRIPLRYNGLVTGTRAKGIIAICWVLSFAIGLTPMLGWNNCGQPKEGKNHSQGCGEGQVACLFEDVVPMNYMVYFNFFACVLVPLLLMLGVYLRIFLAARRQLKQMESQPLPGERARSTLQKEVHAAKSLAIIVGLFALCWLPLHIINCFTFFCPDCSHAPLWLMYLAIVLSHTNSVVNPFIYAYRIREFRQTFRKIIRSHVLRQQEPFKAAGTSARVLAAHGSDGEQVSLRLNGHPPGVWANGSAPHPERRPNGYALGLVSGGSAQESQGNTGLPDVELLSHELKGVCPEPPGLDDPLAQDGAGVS

IC50 [nM]	Compound
8	Nc1nc(N2CCC[C@H]2C(=O)N2CCC(N3CC(F)(F)C3)CC2)nc2nc(-c3ccco3)nn12 [Example 390, (S)-(1-(7-amino-2-(furan-2-yl)-[1,2,4]triazolo[1,5-a][1,3,5]triazin-5-yl)pyrrolidin-2-yl)(4-(3,3-difluoroazetidin-1-yl)piperidin-1-yl)methanone]
7	Nc1nc(N2CCC[C@H]2C(=O)N2CCC(N3CCC(F)(F)CC3)CC2)nc2nc(-c3ccco3)nn12 [Example 391, (S)-(1-(7-amino-2-(furan-2-yl)-[1,2,4]triazolo[1,5-a][1,3,5]triazin-5-yl)pyrrolidin-2-yl)(4,4-difluoro-[1,4′-bipiperidin]-1′-yl) methanone]
9	Nc1nc(N2CCC[C@H]2C(=O)N2CCN(C3CCC3)CC2)nc2nc(-c3ccco3)nn12 [Example 392, (S)-(1-(7-amino-2-(furan-2-yl)-[1,2,4]triazolo[1,5-a][1,3,5]triazin-5-yl)pyrrolidin-2-yl)(4-cyclobutylpiperazin-1-yl)methanone]
9	Nc1nc(N2CCC[C@H]2C(=O)N2CCN(C3COC3)CC2)nc2nc(-c3ccco3)nn12 [Example 403, (S)-(1-(7-amino-2-(furan-2-yl)-[1,2,4]triazolo[1,5-a][1,3,5]triazin-5-yl)pyrrolidin-2-yl)(4-(oxetan-3-yl)piperazin-1-yl)methanone]
71	COCCN1CCN(C2CN(C(=O)[C@@H]3CCCN3c3nc(N)n4nc(-c5ccco5)nc4n3)C2)CC1 [Example 405, (S)-(1-(7-amino-2-(furan-2-yl)-[1,2,4]triazolo[1,5-a][1,3,5]triazin-5-yl)pyrrolidin-2-yl)(3-(4-(2-methoxyethyl)piperazin-1-yl)azetidin-1-yl)methanone]
17	Nc1nc(N2CCC[C@H]2C(=O)N2CCC(CN3CC(F)C3)CC2)nc2nc(-c3ccco3)nn12 [Example 406, (S)-(1-(7-amino-2-(furan-2-yl)-[1,2,4]triazolo[1,5-a][1,3,5]triazin-5-yl)pyrrolidin-2-yl)(4-((3-fluoroazetidin-1-yl)methyl)piperidin-1-yl)methanone]

Further lines, the compound ahead of its results:

Compound	IC50 [nM]
Nc1nc(N2CCC[C@H]2C(=O)N2CCN(CC3(F)CCOCC3)CC2)nc2nc(-c3ccco3)nn12 [Example 389, (S)-(1-(7-amino-2-(furan-2-yl)-[1,2,4]triazolo[1,5-a][1,3,5]triazin-5-yl)pyrrolidin-2-yl)(4-((4-fluorotetrahydro-2H-pyran-4-yl)methyl)piperazin-1-yl)methanone]	7
Nc1nc(N2CCC[C@H]2C(=O)N2CCC(C3CCN(CC(F)F)CC3)CC2)cc2nc(-c3ccco3)nn12 [Example 393, (S)-(1-(5-amino-2-(furan-2-yl)-[1,2,4]triazolo[1,5-c]pyrimidin-7-yl)pyrrolidin-2-yl)(1′-(2,2-difluoroethyl)-[4,4′-bipiperidin]-1-yl)methanone]	13
CC(F)(F)CN1CCC(C2CCN(C(=O)[C@@H]3CCCN3c3cc4nc(-c5ccco5)nn4c(N)n3)CC2)CC1 [Example 394, (S)-(1-(5-amino-2-(furan-2-yl)-[1,2,4]triazolo[1,5-c]pyrimidin-7-yl)pyrrolidin-2-yl)(1′-(2,2-difluoropropyl)-[4,4′-bipiperidin]-1-yl)methanone]	15
CC(C)(F)CN1CCC(C2CCN(C(=O)[C@@H]3CCCN3c3cc4nc(-c5ccco5)nn4c(N)n3)CC2)CC1 [Example 395, (S)-(1-(5-amino-2-(furan-2-yl)-[1,2,4]triazolo[1,5-c]pyrimidin-7-yl)pyrrolidin-2-yl)(1′-(2-fluoro-2-methylpropyl)-[4,4′-bipiperidin]-1-yl)methanone]	18
COC[C@H](Nc1nc(N)n2nc(-c3ccco3)nc2n1)C(=O)N1CCN(CC(F)F)CC1 [Example 396, (S)-2-((7-amino-2-(furan-2-yl)-[1,2,4]triazolo[1,5-a][1,3,5]triazin-5-yl)amino)-1-(4-(2,2-difluoroethyl)piperazin-1-yl)-3-methoxypropan-1-one]	29
COC[C@H](Nc1nc(N)n2nc(-c3ccco3)nc2n1)C(=O)N1CCN(CC(C)(F)F)CC1 [Example 397, (S)-2-((7-amino-2-(furan-2-yl)-[1,2,4]triazolo[1,5-a][1,3,5]triazin-5-yl)amino)-1-(4-(2,2-difluoropropyl)piperazin-1-yl)-3-methoxypropan-1-one]	12
COC[C@H](Nc1nc(N)n2nc(-c3ccco3)nc2n1)C(=O)N1CCN(C2CCC(F)(F)CC2)CC1 [Example 398, (S)-2-((7-amino-2-(furan-2-yl)-[1,2,4]triazolo[1,5-a][1,3,5]triazin-5-yl)amino)-1-(4-(4,4-difluorocyclohexyl)piperazin-1-yl)-3-methoxypropan-1-one]	20
COC[C@H](Nc1nc(N)n2nc(-c3ccco3)nc2n1)C(=O)N1CCN(CC(C)(C)O)CC1 [Example 399, (S)-2-((7-amino-2-(furan-2-yl)-[1,2,4]triazolo[1,5-a][1,3,5]triazin-5-yl)amino)-1-(4-(2-hydroxy-2-methylpropyl)piperazin-1-yl)-3-methoxypropan-1-one]	5
Nc1nc(N2CCC[C@H]2C(=O)N2CCC(N3CC(F)(F)C3)CC2)cc2nc(-c3ccco3)nn12 [Example 400, (S)-(1-(5-amino-2-(furan-2-yl)-[1,2,4]triazolo[1,5-c]pyrimidin-7-yl)pyrrolidine-2-yl)(4-(3,3-difluoroazetidin-1-yl)piperidin-1-yl)methanone]	14
CCCCN1CCN(C(=O)[C@H](COC)Nc2nc(N)n3nc(-c4ccco4)nc3n2)CC1 [Example 401, (S)-2-((7-amino-2-(furan-2-yl)-[1,2,4]triazolo[1,5-a][1,3,5]triazin-5-yl)amino)-1-(4-butylpiperazin-1-yl)-3-methoxypropan-1-one]	11
Nc1nc(N2CC[C@H]2C(=O)N2CCC(CN3CCC(C(F)(F)F)CC3)CC2)nc2nc(-c3ccco3)nn12 [Example 402, (S)-(1-(7-amino-2-(furan-2-yl)-[1,2,4]triazolo[1,5-a][1,3,5]triazin-5-yl)azetidin-2-yl)(4-((4-(trifluoromethyl)piperidin-1-yl)methyl)piperidin-1-yl)methanone]	10
Nc1nc(N2CCC[C@H]2C(=O)N2CCN(C3COC3)CC2)cc2nc(-c3ccco3)nn12 [Example 404]	18
